Source: US20130029983A1, “AMINOTHIENOPYRIDAZINE INHIBITORS OF TAU ASSEMBLY” (priority 2009, published 2013)
Read-outs that look alike come from different tables or passages of the source.

Key:
[1] = target: T1, K18 tau-mediated tubulin polymerization (Homo sapiens, UniProt P10636); assay: Tau-mediated MT assembly assay (K18 tau, tubulin); assay type: biochemical, bovine (tubulin); settings: 50 μM compound, FIG. 1A
T1 construct: (K18PL; amino acids 244-369)
Method: The effect of compounds on tau-mediated MT assembly was essentially as described (Hong, M., Zhukareva, V., Vogelsberg-Ragaglia, V., Wszolek, Z., Reed, L., Miller, B. I., Geschwind, D. H., Bird, T. D., McKeel, D., Goate, A., Morris, J. C., Wilhelmsen, K. C., Schellenberg, G. D., Trojanowski, J. Q., and Lee, V. M. Y. (1998) Science 282, 1914-1917), adapted to a 384-well plate. […] Lyophilized bovine brain tubulin (Cytoskeleton Inc.) was reconstituted in RAB (100 mM MES, pH 6.9; 1 mM EDTA; 0.5 mM MgSO4) at a concentration of 10 mg/ml. Compounds (50 μM) were added to K18 tau (40 μM) in RAB and pre-incubated at room temperature for 60 minutes. To initiate the MT assembly reaction, 8.25 μl per well of 10 mg/ml tubulin was dispensed on a UV-clear 384-well plate (Corning #3675), followed by 1.0 μl of 100 mM GTP in RAB and 41.25 μl of the compound:tau mixture. […] The plate was incubated in a Spectramax M5 plate reader at 37° C. and the absorbance at 340 nm was read every minute for 45 minutes.

K18PL tau [2] = target: T2, K18PL tau (Homo sapiens, UniProt P10636, P618L); assay: Heparin-induced K18PL tau fibrillization assay monitored by ThT fluorescence; assay type: biochemical; settings: for Emax: read-out: K18PL (ThT) maximal percent inhibition achieved in the assay
T2 construct: (K18PL; amino acids 244-369); made in house
T2 sequence (P10636 561-686 P618L): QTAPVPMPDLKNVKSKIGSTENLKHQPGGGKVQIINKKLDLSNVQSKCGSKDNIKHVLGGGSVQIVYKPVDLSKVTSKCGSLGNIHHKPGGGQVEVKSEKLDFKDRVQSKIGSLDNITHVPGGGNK
Method in brief: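 K18PL (30 μM stock, with 0.24 μM Alexa Red-labeled K18PL) plus 40 μM heparin and compound, fibrillized 6 h at 37 °C. Fibrils read by ThT (12.5 μM final, in 100 mM glycine pH 8.5, 1 h RT), ex 450/em 510 nm. Percent inhibition scaled between DMSO wells and non-fibrillizing K18 KD control wells.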

K18PL tau [3] = target: T2, K18PL tau; assay: K18PL tau centrifugation (sedimentation) assay, SDS-PAGE densitometry; assay type: biochemical; settings: for Emax: SDS-PAGE of soluble and insoluble fractions after centrifugation, read-out: K18PL Sed. Assay, maximal percent inhibition of K18PL fibrillization
Method in brief: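 Heparin-induced fibrillization of K18PL tau in sodium acetate buffer with test compound; mixtures were centrifuged and soluble versus insoluble K18PL quantified by SDS-PAGE densitometry. A repeat run centrifuged DMSO- and compound-treated mixtures for 30 min at time zero to remove pelletable material before incubation.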

full-length tau (tau40) = target: T3, full-length tau (tau40) (Homo sapiens, UniProt P10636); assay: Tau40 fibrillization sedimentation assay; assay type: biochemical; settings: SDS-PAGE of soluble and insoluble fractions after centrifugation; for Emax: read-out: Tau40 Sed. Assay, maximal percent inhibition of tau40 fibrillization
T3 construct: Full length tau (Tau40; amino acids 1-441); made in house
T3 sequence (P10636 1-441 isoform P10636-8): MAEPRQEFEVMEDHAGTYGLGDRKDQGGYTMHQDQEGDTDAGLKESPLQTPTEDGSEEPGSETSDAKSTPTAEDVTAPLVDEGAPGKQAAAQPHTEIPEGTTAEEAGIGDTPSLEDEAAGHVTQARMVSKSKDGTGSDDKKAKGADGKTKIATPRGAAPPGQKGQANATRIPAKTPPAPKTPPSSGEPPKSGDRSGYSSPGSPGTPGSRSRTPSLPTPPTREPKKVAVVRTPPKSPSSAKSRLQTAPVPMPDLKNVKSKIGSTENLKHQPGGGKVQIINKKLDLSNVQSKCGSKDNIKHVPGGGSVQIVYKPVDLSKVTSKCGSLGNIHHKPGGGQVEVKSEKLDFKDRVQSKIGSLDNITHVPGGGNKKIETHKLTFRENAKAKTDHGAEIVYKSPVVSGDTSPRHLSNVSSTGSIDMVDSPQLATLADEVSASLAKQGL
Method: The determination of compound-induced effects on the amount of tau that remains soluble upon centrifugation, and EM visualization of tau species following incubation with test compounds, were as previously described (Crowe, A., Ballatore, C., Hyde, E., Trojanowski, J. Q., and Lee, V. M. Y. (2007) Biochemical and Biophysical Research Communications 358, 1-6). […]

[4] = Turbidimetric solubility in fibrillization buffer; assay type: physicochemical; settings: 100 mM NaOAc pH 7.0 fibrillization buffer, 1% DMSO
Method: Compounds were serially diluted in DMSO to achieve a 2.5 fold dilution series from 20 mM down 8 points to […] on a 384-well master plate (Costar 3672). Aliquots (2 μL) were transferred to a clear 96-well assay plate (Fisher 12-565-501) containing 198 μL fibrillization buffer (100 mM NaOAc pH 7.0) for a 100-fold dilution (200 μM down to 0.3 μM). The plate was incubated with agitation for 2.5 h, and the absorbance at 550, 600, 650 and 700 nm was measured on a Spectramax M5 spectrophotometer. DMSO (1%) in fibrillization buffer served as a control that was subtracted from each data point. The absorbances were averaged and the concentration at which the average absorbance rose above 0.03 AU was an indication of insoluble compound, with solubility limits reported as the previous concentration in the dilution series.

[5] = Brain and plasma drug levels 1 h after i.p. administration (LC-MS/MS); assay type: in vivo; settings: mice; for B/P, ratio between brain/plasma drug level: 1 h after i.p. 5 mg/Kg
Method: (§1) Test compounds underwent preliminary evaluations of brain penetration, in which 5 mg/Kg of each compound was administered intraperitoneally (i.p.) to a group of three normal mice; drug levels in brain and plasma were determined at a single time-point (1 h) by LC-MS/MS using pre-validated calibration curves. […] However, both esters appeared to have relatively short half-lives in plasma, as indicated by the limited amount of parent drug detected after 1 h from administration of the compounds. […] CNDR-51362 was selected for full PK analysis in which brain and plasma drug levels were determined at six time points (i.e., 30 min, 1 h, 2 h, 4 h, 8 h, and 16 h). The results from this experiment, illustrated in FIG. 6A, confirmed that the total B/P exposure ratio over 16 h is 1.6. […] Finally, in order to investigate the potential for ATPZ congeners to be orally administered, we evaluated brain and plasma level of CNDR-51362 and CNDR-51349 after oral administration of 5 mg/Kg.
(§2) Brain tissue was homogenized in 10 mM ammonium acetate, pH 5.7 (1:2; w/v) using a handheld sonic homogenizer. Plasma was obtained from blood that was collected into a 1.5 mL tube containing 0.5M EDTA solution and subjected to centrifugation for 10 min. at 4500 g at 4° C. Aliquots (50 μL) of brain homogenate or plasma were mixed with 0.2 mL of acetonitrile, centrifuged at 15,000 g, and the resulting supernatants were used for subsequent LC-MS/MS analysis. The LC-MS/MS system was comprised of an Aquity HPLC and a TQ MS that was controlled using MassLynx software (Waters Corporation, Milford, Mass., USA). Compounds were detected using multiple reaction monitoring (MRM) of their specific collision-induced ion transitions. Samples (5 μL) were separated on an Aquity BEH C18 column (1.7 μm, 2.1×50 mm) at 35° C. Operation was in positive electrospray ionization mode, with mobile phase A of 0.1% (v/v) formic acid, and B of either acetonitrile or methanol with 0.1% (v/v) formic acid at a flow rate of 0.6 mL/min using a gradient from 5% to 95% B over two min., followed by wash and re-equilibration steps. The MS was operated with a desolvation temperature of 450° C. and a source temperature of 150° C. Desolvation and source nitrogen gas flows were 900 L/hr and 50 L/hr, respectively. Source and MS/MS voltages were optimized for each compound using the MassLynx auto tune utility. Standard curves were generated for each compound from brain homogenate and plasma samples that had compound added at 4, 40, 400 and 4000 ng/mL and extracted as above. Peak areas were plotted against concentration and a 1/x weighted linear regression curve was used to quantify the tissue-derived samples using the average peak area from triplicate injections.

Aβ(1-42) = target: T4, Aβ(1-42) (Homo sapiens, UniProt P05067); assay: Aβ(1-42) fibrillization assay (ThT); assay type: biochemical; settings: Table 3; highest tested concentration (80 μM); read-out: Aβ42 ThT Assay % Inhib.
T4 construct: Synthetic Aβ(1-42) peptide (rPeptide); purchased rPeptide
T4 sequence (P05067 672-713 limits assumed): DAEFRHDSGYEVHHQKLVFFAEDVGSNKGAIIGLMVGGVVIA

Tau40 = target: T5, Tau40 (Homo sapiens, UniProt P10636); assay: SEC of Tau40 fibrillization post-centrifugation supernatants; assay type: biochemical; settings: tau40 fibril assembly with 5b relative to untreated fibrillization reaction, FIG. 2
T5 construct: Full length tau (Tau40; amino acids 1-441); made in house
T5 sequence (P10636 1-441 isoform P10636-8): as the sequence (P10636 1-441 isoform P10636-8) above
Method: Tau40 (50 μM) and heparin (20 μM) were incubated in a PCR tube with or without the compound 5b (100 μM) at 37° C. for 5 days in a final volume of 100 μl of […] sodium acetate buffer, pH 7.0. In the absence of compound, tau40 fibrillization is complete under these conditions, as determined by ThT fluorescence and centrifugation assays. A non-assembly control reaction was also prepared as above with Tau40 and 5b in the absence of heparin. The completed reactions were centrifuged at 40,000 g for 30 minutes to sediment fibrils and the supernatants were applied to a Superdex 200 10/300 column (GE Healthcare) employing an Äkta Basic FPLC unit (GE Healthcare) with a flow rate of 0.4 ml/minute. Tau elution was monitored by absorbance at 280 nm. Under these chromatography conditions, monomeric tau can be separated from oligomeric species (Li, W. K. and Lee, V. M. Y. (2006) Biochemistry 45, 15692-15701).

[6] = Full PK analysis and oral administration, brain and plasma levels; assay type: in vivo, mice; settings: oral 5 mg/Kg, FIGS. 6B and 6C; 5 mg/kg
Method: FIG. 6. (A) Brain and plasma level of F4 (CNDR-51362) after i.v. administration at 2 mg/Kg; (B) Brain and plasma level of F4 (CNDR-51362) after oral administration at 5 mg/Kg; (C) Brain and plasma level of F3 (CNDR-51349) after oral administration at 5 mg/Kg
as §1, §2

[7] = Table 5, read-out: K18PL (ThT) IC50 value

T1 sequence (P10636 561-686): as the sequence (P10636 561-686 P618L) above, with L58P counted along it

CN(C)c1ccc2nc3ccc(=[N+](C)C)cc-3sc2c1 [methylene blue]
Effect on tau-mediated tubulin polymerization (MT formation) [1]: significant diminution

CCNC(=O)c1nn(-c2ccc(Cl)cc2)c(=O)c2c(N)scc12 [CNDR-51365, 5-Amino-3-(4-chlorophenyl)-N-ethyl-4-oxo-3,4-dihydrothieno[3,4-d]pyridazine-1-carboxamide]
IC50 (K18PL tau [2]; [7]): 5.6 µM | Emax (K18PL tau [2]; Table 5): 91% | Emax (K18PL tau [3]): 94% | Tau40 Sed. Assay, maximal percent inhibition of tau40 fibrillization (full-length tau (tau40)): 57% | Emax (full-length tau (tau40)): 50 to 60% | Water Solubility [4]: 32 µM | B/P, ratio between brain/plasma drug level [5]: 1.8

CC(C)NC(=O)c1nn(-c2ccc(Br)cc2)c(=O)c2c(N)scc12 [CNDR-51390, 5-Amino-3-(4-bromophenyl)-N-isopropyl-4-oxo-3,4-dihydrothieno[3,4-d]pyridazine-1-carboxamide]
IC50 (K18PL tau [2]; [7]): 2.2 µM | Emax (K18PL tau [2]; Table 5): 89% | Emax (K18PL tau [3]): 58% | Tau40 Sed. Assay, maximal percent inhibition of tau40 fibrillization (full-length tau (tau40)): 55% | Emax (full-length tau (tau40)): 50 to 60% | Water Solubility [4]: 13 µM | B/P, ratio between brain/plasma drug level [5]: 2.0

CNC(=O)c1nn(-c2ccc(Cl)cc2)c(=O)c2c(N)scc12 [CNDR-51367, 5-Amino-3-(4-chlorophenyl)-N-methyl-4-oxo-3,4-dihydrothieno[3,4-d]pyridazine-1-carboxamide]
IC50 (K18PL tau [2]; [7]): 4.3 µM | Emax (K18PL tau [2]; Table 5): 91% | Emax (K18PL tau [3]): 68% | Tau40 Sed. Assay, maximal percent inhibition of tau40 fibrillization (full-length tau (tau40)): 51% | Emax (full-length tau (tau40)): 50 to 60% | Water Solubility [4]: 13 µM | B/P, ratio between brain/plasma drug level [5]: 0.49

CCOC(=O)c1nn(-c2ccc(OC)cc2)c(=O)c2c(N)scc12 [Compound 5b]
inhibition at 80 µM (K18PL tau [2]; Table 3, highest tested concentration (80 μM), read-out: Tau ThT Assay % Inhib.): 86% | IC50 (K18PL tau [2]; Table 3, logarithm of IC50, K18PL tau ThT fluorescence inhibition, NC = not calculated due to insufficient activity, read-out: Tau ThT Assay Log IC50 (converted)): 5.01 µM | Tau Cent. Assay % Soluble (K18PL tau [3]; Table 3, K18PL tau centrifugation assay): 64% | inhibition at 80 µM (Aβ(1-42)): 28% | Monomeric tau in post-centrifugation supernatant (SEC) (Tau40): appreciable increase in the amount of monomeric tau

CC(C)NC(=O)c1nn(-c2ccc(Cl)cc2)c(=O)c2c(N)scc12 [CNDR-51349, 5-Amino-3-(4-chlorophenyl)-N-isopropyl-4-oxo-3,4-dihydrothieno[3,4-d]pyridazine-1-carboxamide]
IC50 (K18PL tau [2]; [7]): 0.7 µM | Emax (K18PL tau [2]; Table 5): 88% | Emax (K18PL tau [3]): 65% | Tau40 Sed. Assay, maximal percent inhibition of tau40 fibrillization (full-length tau (tau40)): 45% | Emax (full-length tau (tau40)): 50 to 60% | Water Solubility [4]: 32 µM | B/P, ratio between brain/plasma drug level [5]: 2.2 | Brain level ([5]; 1 h after i.p. 5 mg/kg, listed as CNDK-51349, 5 mg/kg): 1100 ng/g | Brain concentration after oral administration [6]: significant brain concentrations
